# Legend:
# [1] = biological target: GLP-1R (Homo sapiens, UniProt P43220); assay: GLP-1R activation: cAMP increase in CHO cells stably expressing GLP-1R; assay type: cell-based; details: cAMP increase, CHO cells stably expressing GLP-1R, 10 point dose response, 30 minutes incubation; read-out: EC50
# [2] = Microsomal stability, human liver microsomes (predicted hepatic clearance); details: predicted from in vitro microsomal stability data
# Sequence of GLP-1R (P43220 24-463): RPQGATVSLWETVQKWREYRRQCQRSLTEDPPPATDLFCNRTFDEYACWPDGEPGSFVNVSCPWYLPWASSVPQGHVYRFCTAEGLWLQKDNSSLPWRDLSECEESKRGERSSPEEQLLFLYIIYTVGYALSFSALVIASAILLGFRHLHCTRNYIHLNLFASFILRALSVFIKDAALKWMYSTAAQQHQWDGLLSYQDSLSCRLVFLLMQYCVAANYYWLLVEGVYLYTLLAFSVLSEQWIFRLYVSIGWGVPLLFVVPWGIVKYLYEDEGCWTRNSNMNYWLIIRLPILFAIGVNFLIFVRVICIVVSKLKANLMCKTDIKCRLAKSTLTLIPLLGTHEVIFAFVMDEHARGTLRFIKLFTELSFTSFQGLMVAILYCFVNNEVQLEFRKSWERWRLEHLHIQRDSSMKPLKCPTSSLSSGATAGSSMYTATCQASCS
SMILES,EC50 [1],Predicted Hepatic Clearance (Pred. Cl.) [2]
"Cc1conc1Cn1c(Cc2ccc(-c3cccc(OCc4ccc(C#N)cc4F)n3)cc2F)nc2ccc(C(=O)O)cc21 [Example 490, 2-(4-(6-((4-cyano-2-fluorobenzyl)oxy)pyridin-2-yl)-2-fluorobenzyl)-1-((4-methylisoxazol-3-yl)methyl)-1H-benzo[d]imidazole-6-carboxylic acid]",5.53 nM,3.67 mL/min/kg
"NC(=O)c1cc(F)c(COc2cccc(-c3cc(F)c(Cc4nc5ccc(C(=O)O)cc5n4C[C@@H]4CCO4)cc3F)n2)cn1 [Example 854, (S)-2-(4-(6-((6-carbamoyl-4-fluoropyridin-3-yl)methoxy)pyridin-2-yl)-2,5-difluorobenzyl)-1-(oxetan-2-ylmethyl)-1H-benzo[d]imidazole-6-carboxylic acid]",0.55 nM,2.33 mL/min/kg
"COc1cc(Cl)ccc1COc1cccc(-c2cc(F)c(Cc3nc4ccc(C(=O)O)cc4n3CC3(CC#N)CC3)cc2F)n1 [Example 443, 2-(4-(6-((4-chloro-2-methoxybenzyl)oxy)pyridin-2-yl)-2,5-difluorobenzyl)-1-((1-(cyanomethyl)cyclopropyl)methyl)-1H-benzo[d]imidazole-6-carboxylic acid]",0.15 nM,11 mL/min/kg
"NC(=O)c1ccc(COc2cccc(-c3cc(F)c(Cc4nc5ccc(C(=O)O)cc5n4C[C@@H]4CCO4)cc3F)n2)c(OC(F)F)n1 [Example 857, (S)-2-(4-(6-((6-carbamoyl-2-(difluoromethoxy)pyridin-3-yl)methoxy)pyridin-2-yl)-2,5-difluorobenzyl)-1-(oxetan-2-ylmethyl)-1H-benzo[d]imidazole-6-carboxylic acid]",0.35 nM,3.17 mL/min/kg
COCCn1c(Cc2cc(F)c(-c3cccc(OCc4ccc(C#N)nc4)n3)cc2F)nc2c(F)cc(C(=O)O)cc21 [Example 657],5.88 nM,4 mL/min/kg
N#Cc1ccc(COc2ncc(F)c(-c3ccc(Cc4nc5c(F)cc(C(=O)O)cc5n4C[C@@H]4CCO4)cc3F)n2)c(F)c1 [Example 881],0.29 nM,8.83 mL/min/kg
"COC[C@@H](C)n1c(Cc2cc(F)c(-c3cccc(OCc4ccc(C#N)cc4F)n3)cc2F)nc2ccc(C(=O)O)cc21 [Example 560, (R)-2-(4-(6-((4-cyano-2-fluorobenzyl)oxy)pyridin-2-yl)-2,5-difluorobenzyl)-1-(1-methoxypropan-2-yl)-1H-benzo[d]imidazole-6-carboxylic acid]",1.92 nM,5.83 mL/min/kg
N#Cc1ccc(COc2cccc(-c3cc(F)c(Cc4nc5ccc(C(=O)O)cc5n4CC45CC(C4)C(C(F)(F)F)O5)cc3F)n2)c(F)c1 (centres unmarked) [Example 737],1.89 nM,1.83 mL/min/kg
N#Cc1ccc(COc2cccc(-c3cc(F)c(Cc4nc5c(F)cc(C(=O)O)cc5n4CCOC(F)F)cc3F)n2)c(F)c1 [Example 892],0.78 nM,5.5 mL/min/kg
O=C(O)c1ccc2nc(Cc3c(F)cc(-c4cccc(OCc5ccc(C(F)F)cc5F)n4)cc3F)n(C[C@@H]3CCO3)c2c1 [Example 679],0.06 nM,5 mL/min/kg
"N#Cc1ccc(COc2nccc(-c3ccc(Cc4nc5c(F)cc(C(=O)O)cc5n4CC4(CF)CC4)c(F)c3)n2)c(F)c1 [Example 360, 2-(4-(2-((4-cyano-2-fluorobenzyl)oxy)pyrimidin-4-yl)-2-fluorobenzyl)-4-fluoro-1-((1-(fluoromethyl)cyclopropyl)methyl)-1H-benzo[d]imidazole-6-carboxylic acid]",0.94 nM,<1.83 mL/min/kg
"COCCn1c(Cc2cnc(-c3cccc(OCc4ccc(C#N)cc4F)n3)cn2)nc2ccc(C(=O)O)cc21 [Example 102, 2-((5-(6-((4-cyano-2-fluorobenzyl)oxy)pyridin-2-yl)pyrazin-2-yl)methyl)-1-(2-methoxyethyl)-1H-benzo[d]imidazole-6-carboxylic acid]",56.5 nM,5.17 mL/min/kg
"COCCn1c(Cc2ccc(-c3cccc(OCc4ccc(C#N)cc4OCC(F)F)n3)cc2F)nc2ccc(C(=O)O)cc21 [Example 245, 2-(4-(6-((4-cyano-2-(2,2-difluoroethoxy)benzyl)oxy)pyridin-2-yl)-2-fluorobenzyl)-1-(2-methoxyethyl)-1H-benzo[d]imidazole-6-carboxylic acid]",140 nM,4.5 mL/min/kg
"COCCn1c(Cc2ccc(-c3cccc(OCc4ccc(C#N)cc4F)n3)cc2C#Cc2cncnc2)nc2ccc(C(=O)O)cc21 [Example 254, 2-(4-(6-((4-cyano-2-fluorobenzyl)oxy)pyridin-2-yl)-2-(pyrimidin-5-ylethynyl)benzyl)-1-(2-methoxyethyl)-1H-benzo[d]imidazole-6-carboxylic acid]",68.6 nM,<1.83 mL/min/kg
"COCCn1c(Cc2cc(F)c(-c3ccnc(OCc4ccc(C#N)cc4OC)n3)cc2F)nc2ccc(C(=O)O)cc21 [Example 368, 2-(4-(2-((4-cyano-2-methoxybenzyl)oxy)pyrimidin-4-yl)-2,5-difluorobenzyl)-1-(2-methoxyethyl)-1H-benzo[d]imidazole-6-carboxylic acid]",0.77 nM,<1.83 mL/min/kg
O=C(O)c1ccc2nc(Cc3c(F)cc(-c4cccc(OCc5ccc(C(F)F)cc5F)n4)c(F)c3F)n(Cc3ncco3)c2c1 [Example 749],0.33 nM,4.33 mL/min/kg
"COCCn1c(C2OCCc3cc(-c4cccc(OCc5ccc(C#N)cc5F)n4)ccc32)nc2ccc(C(=O)O)cc21 (centres unmarked) [Example 37, 2-(6-(6-((4-cyano-2-fluorobenzyl)oxy)pyridin-2-yl)isochroman-1-yl)-1-(2-methoxyethyl)-1H-benzo[d]imidazole-carboxylic acid]",927 nM,8.67 mL/min/kg
"COCCn1c(Cc2ccc(-c3csnc3OCc3ccc(C#N)cc3F)cc2F)nc2ccc(C(=O)O)cc21 [Example 88, 2-(4-(3-((4-cyano-2-fluorobenzyl)oxy)isothiazol-4-yl)-2-fluorobenzyl)-1-(2-methoxyethyl)-1H-benzo[d]imidazole-6-carboxylic acid]",296 nM,8.5 mL/min/kg
"N#Cc1ccc(COc2cccc(-c3ccc(Cc4nc5ccc(C(=O)O)cc5n4CC4(CF)CCC4)c(F)c3)n2)c(F)c1 [Example 393, 2-(4-(6-((4-cyano-2-fluorobenzyl)oxy)pyridin-2-yl)-2-fluorobenzyl)-1-((1-(fluoromethyl)cyclobutyl)methyl)-1H-benzo[d]imidazole-6-carboxylic]",33.5 nM,5 mL/min/kg
N#Cc1ccc(COc2cccc(-c3cc(F)c(Cc4nc5ccc(C(=O)O)cc5n4[C@@H]4COC[C@@H]4O)cc3F)n2)c(F)c1 [Example 614],0.79 nM,1.83 mL/min/kg
"COCCn1c(Cc2cc(F)c(-c3cccc(OCc4ccc(C#N)cc4F)n3)cc2F)nc2ccc(C(=O)O)cc21 [Example 426, 2-(4-(6-((4-cyano-2-fluorobenzyl)oxy)pyridin-2-yl)-2,5-difluorobenzyl)-1-(2-methoxyethyl)-1H-benzo[d]imidazole-6-carboxylic acid]",2.34 nM,4.6 mL/min/kg
"COc1cc(Cl)ccc1COc1cccc(-c2cc(F)c(Cc3nc4ccc(C(=O)O)cc4n3CC3(CF)CC3)cc2F)n1 [Example 445, 2-(4-(6-((4-chloro-2-methoxybenzyl)oxy)pyridin-2-yl)-2,5-difluorobenzyl)-1-((1-(fluoromethyl)cyclopropyl)methyl)-1H-benzo[d]imidazole-6-carboxylic acid]",0.5 nM,9.67 mL/min/kg
N#Cc1cc(F)c(COc2ncc(F)c(-c3cc(F)c(Cc4nc5ccc(C(=O)O)cc5n4C[C@@H]4CCO4)cc3F)n2)cc1F [Example 878],0.78 nM,8.83 mL/min/kg
"N#Cc1ccc(COc2cccc(-c3ccc(Cc4nc5ccc(C(=O)O)cc5n4CCOC(F)F)c(F)c3)n2)c(F)c1 [Example 324, 2-(4-(6-((4-cyano-2-fluorobenzyl)oxy)pyridin-2-yl)-2-fluorobenzyl)-1-(2-(difluoromethoxy)ethyl)-1H-benzo[d]imidazole-6-carboxylic acid]",5.22 nM,2.83 mL/min/kg
"COCCn1c(Cc2ccc(-c3conc3OCc3ccc(C#N)cc3F)cc2F)nc2ccc(C(=O)O)cc21 [Example 80, 2-(4-(3-((4-cyano-2-fluorobenzyl)oxy)isoxazol-4-yl)-2-fluorobenzyl)-1-(2-methoxyethyl)-1H-benzo[d]imidazole-6-carboxylic acid]",2630 nM,5.17 mL/min/kg
"COCCn1c(Cc2ccc(-c3cccc(OCc4ccc(C#N)cc4F)n3)cc2C#CC2CC2)nc2ccc(C(=O)O)cc21 [Example 257, 2-(4-(6-((4-cyano-2-fluorobenzyl)oxy)pyridin-2-yl)-2-(cyclopropylethynyl)benzyl)-1-(2-methoxyethyl)-1H-benzo[d]imidazole-6-carboxylic acid]",1.43 nM,5.83 mL/min/kg
"N#Cc1ccc(COc2nccc(-c3cc(F)c(Cc4nc5ccc(C(=O)O)cc5n4CC4(CF)CC4)cc3F)n2)c(F)c1 [Example 431, 2-(4-(2-((4-cyano-2-fluorobenzyl)oxy)pyrimidin-4-yl)-2,5-difluorobenzyl)-1-((1-(fluoromethyl)cyclopropyl)methyl)-1H-benzo[d]imidazole-6-carboxylic acid]",0.73 nM,3.83 mL/min/kg
"N#Cc1ccc(COc2cccc(-c3ccc(Cc4nc5ccc(C(=O)O)cc5n4CCC4(CF)CC4)c(F)c3)n2)c(F)c1 [Example 394, 2-(4-(6-((4-cyano-2-fluorobenzyl)oxy)pyridin-2-yl)-2-fluorobenzyl)-1-(2-(1-(fluoromethyl)cyclopropyl)ethyl)-1H-benzo[d]imidazole-6-carboxylic acid]",6.06 nM,4.17 mL/min/kg
